Data: ChEMBL document CHEMBL1146128, “Azolylchromans as a novel scaffold for anticonvulsant activity” (2006)

Assays:
Settings in all cases: route intraperitoneal
Mus musculus [1] = test: Hind limb tonic extension in PTZ-induced lethal convulsions in mice at 5 mg/kg, ip; type: functional, Hindlimb
Mus musculus [2] = test: Seizure latency in PTZ-induced lethal convulsions in mice at 5 mg/kg, ip; type: functional
Mus musculus [3] = test: Mortality in PTZ-induced lethal convulsions in mice at 5 mg/kg, ip; type: functional
Mus musculus [4] = test: Hind limb tonic extension in PTZ-induced lethal convulsions in mice at 150 mg/kg, ip; type: functional, Hindlimb
Mus musculus [5] = test: Seizure latency in PTZ-induced lethal convulsions in mice at 150 mg/kg, ip; type: functional
Mus musculus [6] = test: Mortality in PTZ-induced lethal convulsions in mice at 150 mg/kg, ip; type: functional

SMILES | Activity (Mus musculus [1]) | Activity (Mus musculus [2]) | Activity (Mus musculus [3]) | Activity (Mus musculus [4]) | Activity (Mus musculus [5]) | Activity (Mus musculus [6])
O=c1c(-n2cnnc2)coc2ccccc12 | 100% | 10 min | 100% | – | – | –
O/N=C1\c2ccccc2OCC1n1ccnc1 (configuration not stated) | 100% | 5.5 min | 100% | – | – | –
O=C1c2ccc(Cl)cc2OCC1n1ccnc1 (configuration not stated) | 0% | 23.5 min | 0% | – | – | –
O=C1c2ccccc2OCC1n1cncn1 (configuration not stated) | 17% | 22 min | 17% | – | – | –
O/N=C1/c2ccc(Cl)cc2OCC1n1cnnc1 (configuration not stated) | 100% | 2.5 min | 100% | – | – | –
O/N=C1\c2ccccc2OCC1[n+]1cnc[nH]1 (configuration not stated) | 100% | 7.17 min | 100% | – | – | –
CCCC(CCC)C(=O)[O-].[Na+] [VALPROATE SODIUM] | – | – | – | 0% | 15.65 min | 0%
Cc1oc2ccccc2c(=O)c1-n1cnnc1 | 100% | 5 min | 100% | – | – | –
O/N=C1/c2ccccc2OCC1n1ccnc1 (configuration not stated) | 83% | 7.8 min | 0% | – | – | –
C[C@H]1Oc2ccccc2C(=O)[C@@H]1n1cnnc1 (relative stereo) | 100% | 7.17 min | 100% | – | – | –
C[C@@H]1Oc2cc(Cl)ccc2C(=O)[C@H]1n1ccnc1 (relative stereo) | 67% | 18.6 min | 67% | – | – | –
C[C@@H]1Oc2ccccc2C(=O)[C@H]1n1ccnc1 (relative stereo) | 100% | 17 min | 67% | – | – | –
O/N=C1/c2ccc(Cl)cc2OCC1n1ccnc1 (configuration not stated) | 100% | 5.83 min | 100% | – | – | –
O=C1c2ccccc2OCC1n1cnnc1 (configuration not stated) | 100% | 2.83 min | 100% | – | – | –
C[C@H]1Oc2cc(Cl)ccc2C(=O)[C@@H]1n1cnnc1 (relative stereo) | 83% | 10 min | 83% | – | – | –
O=C1c2ccc(Cl)cc2OCC1n1cncn1 (configuration not stated) | 100% | 2.5 min | 100% | – | – | –
O=C1c2ccc(Cl)cc2OCC1n1cnnc1 (configuration not stated) | 100% | 4.67 min | 83% | – | – | –
O/N=C1/c2ccccc2OCC1n1cncn1 (configuration not stated) | 100% | 4 min | 100% | – | – | –
O=C1c2ccccc2OCC1n1ccnc1 (configuration not stated) | 83% | 2 min | 83% | – | – | –
